Experiments:
[1] = Clinical study: ethinyl estradiol/levonorgestrel with or without DHEA (Example 2); type: in vivo; conditions: 50 mg DHEA daily oral added to ethinyl estradiol/levonorgestrel for 104 days, versus women not receiving DHEA
Experimental: A clinical study is conducted in 200 healthy young women. […] Vaginal spotting and bleeding is scored daily by the participants in a diary and the effects on general well being are scored at baseline and at each study visit (every 5 weeks during study drug administration) on a psychometric rating scale. The psychometric rating scale used is especially suited for identifying differences in a population of healthy young women. The scale is a 24-item (placid, sleepy, jittery, intense, lacking confidence, energetic, sensitive, tired, well-balanced, at-rest, drowsy, fearful, lively, sickly, in a good mood, irritable, lethargic, quiet, full-of-pep, optimistic, moody, active, tense, sad), 4-point (yes, definitely; yes, a bit; no, in fact not; no, definitely not) scale to be scored by the person themself. In addition, endocrine measurements are performed in a subgroup of the participants (17β-estradiol, progesterone, total testosterone, LH, FSH and SHBG).

endometrium [2] = conditions: DHEA applied on the dorsal skin of ovariectomized rats, all time intervals; cited from earlier work
[3] = Clinical study: 17β-estradiol/norethisterone acetate with or without DHEA (Example 3); type: in vivo; conditions: 50 mg DHEA daily oral added to 3 mg 17β-estradiol and 1.5 mg norethisterone acetate for 104 days, versus women not receiving DHEA
Experimental: A clinical study is conducted in 100 healthy young women. […] Vaginal spotting and bleeding is scored daily by the participants in a diary. The effects on general well being are scored at baseline and at each study visit (every 5 weeks during study drug administration) using the psychometric rating scale described in example 2.
Ovulation inhibition is investigated by analysing pregnanediol samples twice a week during 4 weeks between week 7 and 14. In addition, endocrine measurements are performed in a subgroup of the participants (17β-estradiol, progesterone, total testosterone, LH, FSH and SHBG).

endometrium [4] = assay: McPhail test: endometrial differentiation in estradiol-pretreated rabbits; type: in vivo; conditions: rabbits pretreated with 5 μg 17β-estradiol s.c. for 6 days; levonorgestrel 8 μg/day oral and/or testosterone 20 mg/day s.c. for 5 days; scores 0-4
Experimental: The effects on endometrium of the progestogen levonorgestrel and the androgen testosterone were determined in rabbits according to the method of McPhail (Mc Phail M. K. “The assay of progestin” J Physiol (1934), 83, 145-156). Four groups of each 5 rabbits were pretreated with daily subcutaneous dosages of 5 μg 17β-estradiol for 6 days.
After pretreatment, 3 groups either received levonorgestrel at an oral dose of 8 μg per day for 5 days, testosterone in a subcutaneous dose of 20 mg per day for 5 days, or levonorgestrel and testosterone together in the aforementioned routes and doses for 5 days. The fourth group was used as the negative control.
Autopsy was performed after the treatment period and the uterus was weighed and histological sections were prepared from each uterine horn and these were microscopically evaluated according to the McPhail Index (scores 0-4; 0=no differentiation; 4=maximal differentiation).

androgen receptors = biological target: T1, androgen receptors (Homo sapiens, UniProt P10275); conditions: precursors per se, in the female body; cited from earlier work
T1 sequence (P10275 1-920): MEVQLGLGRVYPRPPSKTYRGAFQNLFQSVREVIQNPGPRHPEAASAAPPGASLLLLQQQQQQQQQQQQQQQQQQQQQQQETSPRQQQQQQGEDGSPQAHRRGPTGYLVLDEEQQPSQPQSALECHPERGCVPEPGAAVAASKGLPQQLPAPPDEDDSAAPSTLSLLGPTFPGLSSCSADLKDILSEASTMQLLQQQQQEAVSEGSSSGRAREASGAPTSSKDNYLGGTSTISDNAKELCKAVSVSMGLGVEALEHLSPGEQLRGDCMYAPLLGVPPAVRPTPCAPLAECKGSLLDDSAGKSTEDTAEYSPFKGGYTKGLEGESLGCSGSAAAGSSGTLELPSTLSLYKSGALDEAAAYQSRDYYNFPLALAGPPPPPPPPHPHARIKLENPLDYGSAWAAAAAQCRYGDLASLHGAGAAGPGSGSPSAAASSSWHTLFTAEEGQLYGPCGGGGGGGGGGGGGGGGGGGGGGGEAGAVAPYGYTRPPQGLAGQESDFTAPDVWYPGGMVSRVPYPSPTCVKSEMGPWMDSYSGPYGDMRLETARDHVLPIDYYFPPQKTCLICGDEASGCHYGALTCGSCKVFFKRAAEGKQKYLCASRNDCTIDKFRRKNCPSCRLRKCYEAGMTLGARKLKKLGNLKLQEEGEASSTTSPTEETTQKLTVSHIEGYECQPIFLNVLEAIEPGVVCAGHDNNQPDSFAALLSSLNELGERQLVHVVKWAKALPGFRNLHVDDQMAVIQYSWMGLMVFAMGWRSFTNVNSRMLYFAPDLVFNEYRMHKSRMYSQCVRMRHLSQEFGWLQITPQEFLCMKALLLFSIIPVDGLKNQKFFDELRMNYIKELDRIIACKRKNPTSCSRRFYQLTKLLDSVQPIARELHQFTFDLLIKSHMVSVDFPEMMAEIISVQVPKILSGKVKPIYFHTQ

## C[C@]12CC[C@H](O)CC1=CC[C@@H]1[C@@H]2CC[C@]2(C)C(=O)CC[C@@H]12 [DHEA, dehydroepiandrosterone]
[1]
  psychometric scores on items in the domain of energy: generally better scores
  side effects: less side effects
  vaginal breakthrough spotting and bleeding: less vaginal breakthrough spotting and bleeding
Endometrium [2]
  state of the endometrium during DHEA treatment: remained atrophic
[3]
  psychometric scores on items in the domain of energy: generally better scores
  side effects: less side effects
  vaginal breakthrough spotting and bleeding: less vaginal breakthrough spotting and bleeding

## C#C[C@]1(O)CC[C@H]2[C@@H]3CCC4=CC(=O)CC[C@@H]4[C@H]3CC[C@@]21CC [levonorgestrel]
Endometrium [4]
  McPhail index: 2.1±0.4

## CCCCCCCCCCC(=O)O[C@H]1CC[C@H]2[C@@H]3CCC4=CC(=O)CC[C@]4(C)[C@H]3CC[C@]12C [testosterone undecanoate]
Androgen receptors
  affinity for the androgen receptors: virtually no affinity

## C[C@]12CC[C@H]3[C@@H](CCC4=CC(=O)CC[C@@]43C)[C@@H]1CC[C@@H]2O [testosterone]
Endometrium [4]
  McPhail index: 2.9±0.1
